US8956824B2, “Methods for identifying allosteric modulators of ship polypeptides” (British Columbia Cancer Agency Branch, priority 2006, dated 2015)
“Also recorded” adds a separate entry of the source.

Tests used:
PH domain deleted SHIP1 = target: T1, PH domain deleted SHIP1 (Mus musculus, UniProt Q9ES52, DEL292-400/E403A/P402A/Q401A); assay: Scintillation proximity assay, PH domain deleted SHIP1; assay type: binding
T1 construct: Full length, wild-type SHIP1 enzyme (wt) or SHIP1 enzyme in which the PH or C2 domains were deleted; His6 (N); made in house; 293T cells are stated only for the wild-type enzyme
T1 sequence (Q9ES52 with tags, fused parts or gaps DEL292-400/Q401A/P402A/E403A): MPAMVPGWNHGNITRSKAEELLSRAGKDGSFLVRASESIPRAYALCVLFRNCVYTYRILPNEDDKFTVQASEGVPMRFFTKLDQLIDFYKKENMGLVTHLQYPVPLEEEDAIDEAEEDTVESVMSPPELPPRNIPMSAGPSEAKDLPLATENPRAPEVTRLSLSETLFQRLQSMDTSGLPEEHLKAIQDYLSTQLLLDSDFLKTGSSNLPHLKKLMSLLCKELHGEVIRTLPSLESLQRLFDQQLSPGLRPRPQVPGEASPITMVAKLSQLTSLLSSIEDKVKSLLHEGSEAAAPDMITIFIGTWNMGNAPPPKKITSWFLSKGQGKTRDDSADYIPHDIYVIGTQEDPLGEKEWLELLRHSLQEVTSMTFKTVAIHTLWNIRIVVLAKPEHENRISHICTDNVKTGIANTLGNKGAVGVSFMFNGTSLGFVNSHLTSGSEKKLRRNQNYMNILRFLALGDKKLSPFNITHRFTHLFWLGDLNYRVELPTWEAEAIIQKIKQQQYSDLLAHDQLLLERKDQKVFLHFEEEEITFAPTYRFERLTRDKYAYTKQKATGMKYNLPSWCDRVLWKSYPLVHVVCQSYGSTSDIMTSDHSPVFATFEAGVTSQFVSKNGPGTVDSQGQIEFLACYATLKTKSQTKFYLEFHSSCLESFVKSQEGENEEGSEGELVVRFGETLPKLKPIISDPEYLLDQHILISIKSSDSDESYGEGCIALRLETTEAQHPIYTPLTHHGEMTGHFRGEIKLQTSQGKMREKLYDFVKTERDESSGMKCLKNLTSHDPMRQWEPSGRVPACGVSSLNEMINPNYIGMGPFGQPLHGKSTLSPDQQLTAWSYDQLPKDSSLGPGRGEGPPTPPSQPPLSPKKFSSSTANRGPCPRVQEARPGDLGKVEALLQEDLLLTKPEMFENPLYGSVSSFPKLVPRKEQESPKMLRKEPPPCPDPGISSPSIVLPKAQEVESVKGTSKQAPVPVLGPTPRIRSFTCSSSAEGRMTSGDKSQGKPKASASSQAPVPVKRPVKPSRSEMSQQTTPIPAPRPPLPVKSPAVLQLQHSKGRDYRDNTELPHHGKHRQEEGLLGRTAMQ

SHIP1 C2 domain = target: T2, SHIP1 C2 domain (Mus musculus, UniProt Q9ES52); assay: Scintillation proximity assay, C2 domain; assay type: binding; details: C2 domain 10 nM, 5 μCi
T2 construct: Recombinant SHIP1 C2 domain (amino acid residues 725 to 863); made in house; host or cells: E. coli, pET28C
T2 sequence (Q9ES52 725-863): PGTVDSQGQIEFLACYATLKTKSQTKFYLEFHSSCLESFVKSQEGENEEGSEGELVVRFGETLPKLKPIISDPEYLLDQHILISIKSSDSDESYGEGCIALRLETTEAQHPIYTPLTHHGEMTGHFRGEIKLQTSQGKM
Protocol: Scintillation Proximity Assays AQX-MN100 was radiolabeled with tritium by GE Healthcare (Piscataway, N.J.) to a specific activity of 42 Ci/mmole. Copper chelate (His-Tag) YSi YSi SPA Scintillation Beads (GE Healthcare ,Piscataway, NJ) were diluted in 0.25% BSA/TBS to 1.5 mg/mL and recombinant, His6-tagged protein added at the indicated concentrations: wild-type (1 pM), ΔC2 SHIP enzyme (1 pM) or C2 domain (10 nM). Protein was allowed to bind 1 h at 23° C., and 250 μg of beads were aliquoted per well of a 96-well plate. 5 μCi of [3H]-AQX-MN100 was added per well, the plate gently agitated for 30 min and the amount of bead associated radioactivity quantified by counting in a Wallac BETAPLATE™ plate scintillation counter. Results are representative of 3 independent experiments.

[1] = test system: 100 protein kinase and phosphatase targets; assay: In vitro kinase/phosphatase screen; assay type: biochemical; details: 2 μM final concentration; changes <25% not considered significant
Protocol: Protein kinase assays were performed at 30° C. for 15 min in a final volume of 25 μL. The assay was initiated by the addition of [32P]-ATP and the reaction mixture incubated at 30° C. for 15 minutes. After the 15 minute incubation period, the assay was terminated by spotting 20 μl of the reaction mixture onto phosphocellulose P81 plate. The phosphocellulose P81 plate was washed 3 times for approximately 15 minutes each in a 1% phosphoric acid solution. The radioactivity on the P81 plate was counted in the presence of scintillation fluid in a scintillation counter. Protein phosphatase activities were determined using pNPP as substrate. Assays were performed at 37° C. for 15 min in a […]. The assay was started by incubating the reaction mixture at 37° C. for 15 minutes. After the 15 minutes incubation period, the assay was terminated by the addition of 25 μl of 2N NaOH stopping solution. The absorbance of the reaction solution was measured in a spectrophotometer at 410 nm. The activity of the enzymes in the presence of AQX-MN100 was compared to that in the vehicle control and expressed as a % change in activity relative to that observed in the vehicle control. Changes in activity of <25% were not considered significant. _

LNCaP cells = assay: PKB phosphorylation in LNCaP cells; assay type: cell-based; details: 30 min treatment; cells do not express SHIP1
Protocol: The non-hemopoietic, prostate cancer LnCAP cell line was treated with AQX-016A or LY294002 for 30 min and cell lysates analyzed for phospho-PKB-Thr 308 or phospho-PKB 473 as described in the Examples. AQX-016A (Molecular Weight 328.24) concentration is indicated in μM.

Cc1cc(O)cc2c1[C@]1(C)CC[C@H]3C(C)(C)CCC[C@]3(C)[C@H]1C2 [AQX-MN100]
binding of [3H]-AQX-MN100 to SHIP1 with PH domain deleted (PH domain deleted SHIP1): attenuates the ability of SHIP1 to bind
binding of [3H]-AQX-MN100 to recombinant C2 domain (SHIP1 C2 domain): could directly bind; also recorded: reproducibly observed to bound; also recorded: binds
activity on a panel of 100 kinases and phosphatases [1]: very little activity; also recorded: selectively enhances SHIP enzyme activity

Cc1cc(O)c(O)c2c1[C@]1(C)CC[C@H]3C(C)(C)CCC[C@]3(C)[C@H]1C2 [AQX-016A]
PKB phosphorylation in LNCaP cells (LNCaP cells): had no effect; also recorded: but not AQX-016A inhibits PKB phosphorylation
